Experimental data from patent publication US11000033B2, “Ketone or oxime compound, and herbicide” (NISSAN CHEMICAL CORPORATION, priority 2014, dated 2021).

Tests used:
Assay type in all cases: in vivo
Monochoria vaginalis = test: Test Example 2: herbicidal activity, application during weed generation in submerged conditions (symbol C); details: Table 23; application herbicide amount 320 g/ha; grade 0-5 by criteria of Test Example 1
Outline: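 Weeds emerging under flooded conditions were treated with compound formulated as an emulsion and diluted with water to the intended herbicide amount, poured onto the surface of 4 cm standing water. Seeds had been co-sown in alluvial soil; plants grew at 25° C. to 30° C. and were assessed after 3 weeks.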

[1] = test system: directly sowed rice plant; test: Test Example 3: effect on crop by foliage application, Wagner pot (symbol b); details: application herbicide amount 320 g/ha
Outline: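 Plants are raised from seed in flooded paddy conditions: water stands 0.1–0.5 cm over alluvial soil, and the pot is kept in a greenhouse at 25–30 °C. Species sown are barnyardgrass (E. crus-galli var. crus-galli), Leptochloa chinensis, Cyperus difformis and rice.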

Digitaria ciliaris [2] = test: Test Example 4: herbicidal effect by soil treatment (symbol F); details: application herbicide amount 320 g/ha
Outline: (§1)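 Seeds were sown in sterilized diluvial soil, covered with about 1.5 cm of soil, and the soil surface was sprayed with a water-diluted emulsion of the compound at a predetermined rate. Plants grew in a greenhouse at 25° C. to 30° C.; effects were scored visually 3 weeks after application.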

[3] = test system: Echinochloa crus-galli var. crus-galli; test: Test Example 4: herbicidal effect by soil treatment (symbol H); details: application herbicide amount 320 g/ha
Outline: as §1

Avena fatua [4] = test: Test Example 4: herbicidal effect by soil treatment (symbol I); details: application herbicide amount 320 g/ha
Outline: as §1

Alopecurus myosuroides = test: Test Example 4: herbicidal effect by soil treatment (symbol J); details: application herbicide amount 320 g/ha
Outline: as §1

Lolium multiflorum Lam. [5] = test: Test Example 4: herbicidal effect by soil treatment (symbol K); details: application herbicide amount 320 g/ha
Outline: as §1

Apera spica-venti [6] = test: Test Example 4: herbicidal effect by soil treatment (symbol L); details: application herbicide amount 320 g/ha
Outline: as §1

rice = test: Test Example 4: effect on crop by soil treatment (symbol b); details: application herbicide amount 320 g/ha
Outline: (§2)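 Grown at 25° C. to 30° C. in a greenhouse, the crops came from seed sown spot-wise in sterilized diluvial soil under roughly 1.5 cm of covering soil.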

beet = test: Test Example 4: effect on crop by soil treatment (symbol f); details: application herbicide amount 320 g/ha
Outline: as §2

rapeseed [7] = test: Test Example 4: effect on crop by soil treatment (symbol g); details: application herbicide amount 320 g/ha
Outline: as §2

Digitaria ciliaris [8] = test: Test Example 5: herbicidal effect by foliage application, plastic box (symbol F); details: 320 g/ha, 3 weeks after application
Outline: (§3)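 Effect is rated 3 weeks after a foliar spray of water-diluted emulsion concentrate at a predetermined herbicide amount. Plants had grown 14 days in a 25° C. to 30° C. greenhouse from seed in sterilized diluvial soil.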

Avena fatua [9] = test: Test Example 5: herbicidal effect by foliage application, plastic box (symbol I); details: 320 g/ha, 3 weeks after application
Outline: as §3

Lolium multiflorum Lam. [10] = test: Test Example 5: herbicidal effect by foliage application, plastic box (symbol K); details: 320 g/ha, 3 weeks after application
Outline: as §3

Apera spica-venti [11] = test: Test Example 5: herbicidal effect by foliage application, plastic box (symbol L); details: 320 g/ha, 3 weeks after application
Outline: as §3

Abutilon theophrasti = test: Test Example 5: herbicidal effect by foliage application, plastic box (symbol M); details: 320 g/ha, 3 weeks after application
Outline: as §3

Amaranthus retroflexus = test: Test Example 5: herbicidal effect by foliage application, plastic box (symbol N); details: 320 g/ha, 3 weeks after application
Outline: as §3

Chenopodium album = test: Test Example 5: herbicidal effect by foliage application, plastic box (symbol O); details: 320 g/ha, 3 weeks after application
Outline: as §3

Stellaria media = test: Test Example 5: herbicidal effect by foliage application, plastic box (symbol P); details: 320 g/ha, 3 weeks after application
Outline: as §3

Galium spurium = test: Test Example 5: herbicidal effect by foliage application, plastic box (symbol Q); details: 320 g/ha, 3 weeks after application
Outline: as §3

Veronica persica = test: Test Example 5: herbicidal effect by foliage application, plastic box (symbol R); details: 320 g/ha, 3 weeks after application
Outline: as §3

wheat = test: Test Example 5: effect on crop by foliage application, plastic box (symbol e); details: 320 g/ha, 3 weeks after application
Outline: (§4)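 Crop seed is sown alongside grass and broadleaf weed species in spots in sterilized diluvial soil, then covered to a depth of about 1.5 cm. Plants grow in a greenhouse kept at 25° C. to 30° C.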

rapeseed [12] = test: Test Example 5: effect on crop by foliage application, plastic box (symbol g); details: 320 g/ha, 3 weeks after application
Outline: as §4

Row | SMILES | Herbicidal effect grade, C: Monochoria vaginalis (Monochoria vaginalis) | effect on crop b (directly sowed rice plant), grade 0-5 [1] | F: Digitaria ciliaris, herbicidal effect grade (Digitaria ciliaris [2]) | H: Echinochloa crus-galli var. crus-galli, herbicidal effect grade [3] | I: Avena fatua, herbicidal effect grade (Avena fatua [4]) | J: Alopecurus myosuroides, herbicidal effect grade (Alopecurus myosuroides) | K: Lolium multiflorum Lam., herbicidal effect grade (Lolium multiflorum Lam. [5]) | L: Apera spica-venti, herbicidal effect grade (Apera spica-venti [6]) | F: Digitaria ciliaris, herbicidal effect (criteria of Test Example 1) (Digitaria ciliaris [8]) | I: Avena fatua, herbicidal effect (criteria of Test Example 1) (Avena fatua [9]) | K: Lolium multiflorum Lam., herbicidal effect (criteria of Test Example 1) (Lolium multiflorum Lam. [10]) | L: Apera spica-venti, herbicidal effect (criteria of Test Example 1) (Apera spica-venti [11]) | M: Abutilon theophrasti, herbicidal effect (criteria of Test Example 1) (Abutilon theophrasti) | N: Amaranthus retroflexus, herbicidal effect (criteria of Test Example 1) (Amaranthus retroflexus) | O: Chenopodium album, herbicidal effect (criteria of Test Example 1) (Chenopodium album) | P: Stellaria media, herbicidal effect (criteria of Test Example 1) (Stellaria media) | Q: Galium spurium, herbicidal effect (criteria of Test Example 1) (Galium spurium) | R: Veronica persica, herbicidal effect (criteria of Test Example 1) (Veronica persica) | e: wheat, effect on crop (criteria of Test Example 1) (wheat) | g: rapeseed, effect on crop (criteria of Test Example 1) (rapeseed [12]) | other results
1 | CON=C(C)CC1CC(O)=C(c2c(C)cc(C)cc2SC)C1=O (stereo not drawn) [6-075] | 1 (Herbicidal ratio of 5% or higher and lower than 20%) | 4 (Herbicidal ratio of 70% or higher and lower than 90%) | 0 (Herbicidal ratio of 5% or lower (almost no effect)) | 0 (Herbicidal ratio of 5% or lower (almost no effect)) | 0 (Herbicidal ratio of 5% or lower (almost no effect)) | 4 (Herbicidal ratio of 70% or higher and lower than 90%) | 4 (Herbicidal ratio of 70% or higher and lower than 90%) | 3 (Herbicidal ratio of 40% or higher and lower than 70%) | 1 (Herbicidal ratio of 5% or higher and lower than 20%) | 5 (Herbicidal ratio of 90% or more (almost completely withered)) | 5 (Herbicidal ratio of 90% or more (almost completely withered)) | 5 (Herbicidal ratio of 90% or more (almost completely withered)) | 0 (Herbicidal ratio of 5% or lower (almost no effect)) | 0 (Herbicidal ratio of 5% or lower (almost no effect)) | 0 (Herbicidal ratio of 5% or lower (almost no effect)) | 0 (Herbicidal ratio of 5% or lower (almost no effect)) | 0 (Herbicidal ratio of 5% or lower (almost no effect)) | 0 (Herbicidal ratio of 5% or lower (almost no effect)) | 2 (Herbicidal ratio of 20% or higher and lower than 40%) | 3 (Herbicidal ratio of 40% or higher and lower than 70%) | b: directly sowed rice plant, effect on crop grade (rice): 0 (Herbicidal ratio of 5% or lower (almost no effect)); f: beet, effect on crop grade (beet): 0 (Herbicidal ratio of 5% or lower (almost no effect)); g: rapeseed, effect on crop grade (rapeseed [7]): 0 (Herbicidal ratio of 5% or lower (almost no effect))
2 | CON=C(C)CC1CC(O)=C(c2c(C)cc(OC)cc2C)C1=O (stereo not drawn) [6-055] | 0 (Herbicidal ratio of 5% or lower (almost no effect)) | 5 (Herbicidal ratio of 90% or more (almost completely withered)) | 5 (Herbicidal ratio of 90% or more (almost completely withered)) | 5 (Herbicidal ratio of 90% or more (almost completely withered)) | 0 (Herbicidal ratio of 5% or lower (almost no effect)) | 4 (Herbicidal ratio of 70% or higher and lower than 90%) | 5 (Herbicidal ratio of 90% or more (almost completely withered)) | 5 (Herbicidal ratio of 90% or more (almost completely withered)) | 5 (Herbicidal ratio of 90% or more (almost completely withered)) | 5 (Herbicidal ratio of 90% or more (almost completely withered)) | 5 (Herbicidal ratio of 90% or more (almost completely withered)) | 5 (Herbicidal ratio of 90% or more (almost completely withered)) | 1 (Herbicidal ratio of 5% or higher and lower than 20%) | 0 (Herbicidal ratio of 5% or lower (almost no effect)) | 3 (Herbicidal ratio of 40% or higher and lower than 70%) | 4 (Herbicidal ratio of 70% or higher and lower than 90%) | 3 (Herbicidal ratio of 40% or higher and lower than 70%) | 4 (Herbicidal ratio of 70% or higher and lower than 90%) | 3 (Herbicidal ratio of 40% or higher and lower than 70%) | 5 (Herbicidal ratio of 90% or more (almost completely withered)) | b: directly sowed rice plant, effect on crop grade (rice): 5 (Herbicidal ratio of 90% or more (almost completely withered)); f: beet, effect on crop grade (beet): 0 (Herbicidal ratio of 5% or lower (almost no effect)); g: rapeseed, effect on crop grade (rapeseed [7]): 0 (Herbicidal ratio of 5% or lower (almost no effect))
3 | CC(=O)CC1CC(O)=C(c2c(C)cc(Br)cc2C)C1=O (stereo not drawn) [7-002] | 0 (Herbicidal ratio of 5% or lower (almost no effect)) | 5 (Herbicidal ratio of 90% or more (almost completely withered)) | – | – | – | – | – | – | 5 (Herbicidal ratio of 90% or more (almost completely withered)) | 4 (Herbicidal ratio of 70% or higher and lower than 90%) | 5 (Herbicidal ratio of 90% or more (almost completely withered)) | 3 (Herbicidal ratio of 40% or higher and lower than 70%) | 0 (Herbicidal ratio of 5% or lower (almost no effect)) | 0 (Herbicidal ratio of 5% or lower (almost no effect)) | 0 (Herbicidal ratio of 5% or lower (almost no effect)) | 0 (Herbicidal ratio of 5% or lower (almost no effect)) | 0 (Herbicidal ratio of 5% or lower (almost no effect)) | 0 (Herbicidal ratio of 5% or lower (almost no effect)) | 0 (Herbicidal ratio of 5% or lower (almost no effect)) | 0 (Herbicidal ratio of 5% or lower (almost no effect)) | Herbicidal effect grade, F: Digitaria ciliaris (Digitaria ciliaris [2]): 5 (Herbicidal ratio of 90% or more (almost completely withered)); Herbicidal effect grade, H: Echinochloa crus-galli var. crus-galli [3]: 5 (Herbicidal ratio of 90% or more (almost completely withered)); Herbicidal effect grade, I: Avena fatua (Avena fatua [4]): 0 (Herbicidal ratio of 5% or lower (almost no effect)); Herbicidal effect grade, J: Alopecurus myosuroides (Alopecurus myosuroides): 3 (Herbicidal ratio of 40% or higher and lower than 70%); Herbicidal effect grade, K: Lolium multiflorum Lam. (Lolium multiflorum Lam. [5]): 5 (Herbicidal ratio of 90% or more (almost completely withered)); Herbicidal effect grade, L: Apera spica-venti (Apera spica-venti [6]): 5 (Herbicidal ratio of 90% or more (almost completely withered)); Effect on crop grade, b: directly sowed rice plant (rice): 5 (Herbicidal ratio of 90% or more (almost completely withered)); Effect on crop grade, f: beet (beet): 0 (Herbicidal ratio of 5% or lower (almost no effect)); Effect on crop grade, g: rapeseed (rapeseed [7]): 0 (Herbicidal ratio of 5% or lower (almost no effect))
